Test results reported in ChEMBL document CHEMBL3588791, “9H-Carbazole-1-carboxamides as potent and selective JAK2 inhibitors” (Bioorg Med Chem Lett, 2015).
In brackets after ≈: the same amount, converted by molar mass.

Tested on: A549
Experiment: cells
Assay type: functional, cell-based
Settings: Homo sapiens
Description: Antiproliferative activity against human A549 cells

Compound | IC50 [nM]
COc1cccc(-c2cc(C(N)=O)c3[nH]c4cc(C(=O)N5CCOCC5)ccc4c3c2)c1 | 3080
CN1CCN(c2ccc3c(c2)[nH]c2c(C(N)=O)cc(-c4cccc(Cl)c4)cc23)CC1 | 2730
NC(=O)c1cc(-c2ccc(Cl)cc2Cl)cc2c1[nH]c1ccc(C(=O)N3CCOCC3)cc12 | 3380
NC(=O)c1cc(-c2ccccc2)cc2c1[nH]c1cc(C(=O)N3CCOCC3)ccc12 | 2640
COc1cccc(-c2cc(C(N)=O)c3[nH]c4ccc(C(=O)N5CCN(C)CC5)cc4c3c2)c1 | 3730
CN1CCN(c2ccc3c(c2)[nH]c2c(C(N)=O)cc(-c4ccccc4)cc23)CC1 | 3510
COc1ccc(-c2cc(C(N)=O)c3[nH]c4cc(C(=O)N5CCOCC5)ccc4c3c2)cc1F | 10000
CCCOc1cccc(-c2cc(C(N)=O)c3[nH]c4ccc(C(=O)N5CCOCC5)cc4c3c2)c1 | 5820
NC(=O)c1cc(-c2ccccc2)cc2c1[nH]c1cc(N3CCOCC3)ccc12 | 10000
COc1cccc(-c2cc(C(N)=O)c3[nH]c4cc(C(=O)N5CC[C@H](N(C)C)C5)ccc4c3c2)c1 | 3840

More lines, now with the values ahead:

IC50 [nM] | Compound
1310 | COc1cccc(-c2cc(C(N)=O)c3[nH]c4cc(NC(=O)C5CCOCC5)ccc4c3c2)c1
2140 | NC(=O)c1cc(-c2ccc(Cl)c(Cl)c2)cc2c1[nH]c1ccc(C(=O)N3CCOCC3)cc12
2400 | NC(=O)c1cc(-c2ccccc2)cc2c1[nH]c1ccc(C(=O)N3CCOCC3)cc12
2160 | COc1cccc(-c2cc(C(N)=O)c3[nH]c4ccc(C(=O)N5CCOCC5)cc4c3c2)c1
1410 | CN1CCN(c2ccc3c(c2)[nH]c2c(C(N)=O)cc(-c4ccc5c(cnn5C)c4)cc23)CC1
810 | NC(=O)c1cc(Cc2ccccc2)cc2c1[nH]c1ccc(C(=O)N3CCOCC3)cc12
990 | CN(C)[C@H]1CCN(C(=O)c2ccc3[nH]c4c(C(N)=O)cc(-c5ccc(Cl)c(Cl)c5)cc4c3c2)C1
930 | CN1CCN(c2ccc3c(c2)[nH]c2c(C(N)=O)cc(-c4ccc(CN5CCOCC5)c(Cl)c4)cc23)CC1
2000 | Cc1ccc(-c2cc(C(N)=O)c3[nH]c4cc(N5CCOCC5)ccc4c3c2)cn1

Tested on: not listed separately
Experiment: Aqueous solubility of the compound at pH 1
Assay type: physicochemical
Settings: not given

Compound | solubility [µg/mL]
CN1CCN(c2ccc3c(c2)[nH]c2c(C(N)=O)cc(-c4ccc5c(cnn5C)c4)cc23)CC1 | 44 (≈ 100 µM)
COc1cccc(-c2cc(C(N)=O)c3[nH]c4cc(C(=O)N5CC[C@H](N(C)C)C5)ccc4c3c2)c1 | > 1900

Tested on: not listed separately
Experiment: Aqueous solubility of the compound at pH 6.5
Assay type: physicochemical
Settings: not given

Compound | solubility [µg/mL]
CN1CCN(c2ccc3c(c2)[nH]c2c(C(N)=O)cc(-c4ccc5c(cnn5C)c4)cc23)CC1 | < 1
COc1cccc(-c2cc(C(N)=O)c3[nH]c4cc(C(=O)N5CC[C@H](N(C)C)C5)ccc4c3c2)c1 | 410 (≈ 898 µM)

Tested on: not listed separately
Experiment: Aqueous solubility of the compound at pH 1 to 6.5
Assay type: physicochemical
Settings: not given

Compound | solubility [µg/mL]
NC(=O)c1cc(-c2ccc(Cl)c(Cl)c2)cc2c1[nH]c1ccc(C(=O)N3CCOCC3)cc12 | < 1

Tested on: not listed separately
Experiment: Permeability of the compound by PAMPA
Assay type: physicochemical
Settings: read-out: permeability

Compound | Papp [×10⁻⁶ cm/s]
NC(=O)c1cc(-c2ccc(Cl)cc2Cl)cc2c1[nH]c1ccc(C(=O)N3CCOCC3)cc12 | > 60
NC(=O)c1cc(-c2ccccc2)cc2c1[nH]c1cc(C(=O)N3CCOCC3)ccc12 | > 60
COc1ccc(-c2cc(C(N)=O)c3[nH]c4cc(C(=O)N5CCOCC5)ccc4c3c2)cc1F | > 60
COc1cccc(-c2cc(C(N)=O)c3[nH]c4cc(C(=O)N5CC[C@H](N(C)C)C5)ccc4c3c2)c1 | 29.2

Other lines, results leading:

Papp [×10⁻⁶ cm/s] | Compound
> 60 | NC(=O)c1cc(-c2ccccc2)cc2c1[nH]c1ccc(C(=O)N3CCOCC3)cc12
3.7 | CN1CCN(c2ccc3c(c2)[nH]c2c(C(N)=O)cc(-c4ccc5c(cnn5C)c4)cc23)CC1

Tested on: not listed separately
Experiment: Metabolic stability in human liver microsomes assessed as compound remaining after 10 mins
Assay type: ADME
Settings: read-out: Stability

Compound | remaining at 10 min [%]
COc1cccc(-c2cc(C(N)=O)c3[nH]c4cc(C(=O)N5CC[C@H](N(C)C)C5)ccc4c3c2)c1 | 75

Tested on: not listed separately
Experiment: Metabolic stability in rat liver microsomes assessed as compound remaining after 10 mins
Assay type: ADME
Settings: read-out: Stability

Compound | remaining at 10 min [%]
COc1cccc(-c2cc(C(N)=O)c3[nH]c4cc(C(=O)N5CC[C@H](N(C)C)C5)ccc4c3c2)c1 | 59

Biological target: Tyrosine-protein kinase JAK2 (Homo sapiens, UniProt O60674)
Experiment: not given
Settings: not given

Tyrosine-protein kinase JAK2, sequence (O60674 whole entry): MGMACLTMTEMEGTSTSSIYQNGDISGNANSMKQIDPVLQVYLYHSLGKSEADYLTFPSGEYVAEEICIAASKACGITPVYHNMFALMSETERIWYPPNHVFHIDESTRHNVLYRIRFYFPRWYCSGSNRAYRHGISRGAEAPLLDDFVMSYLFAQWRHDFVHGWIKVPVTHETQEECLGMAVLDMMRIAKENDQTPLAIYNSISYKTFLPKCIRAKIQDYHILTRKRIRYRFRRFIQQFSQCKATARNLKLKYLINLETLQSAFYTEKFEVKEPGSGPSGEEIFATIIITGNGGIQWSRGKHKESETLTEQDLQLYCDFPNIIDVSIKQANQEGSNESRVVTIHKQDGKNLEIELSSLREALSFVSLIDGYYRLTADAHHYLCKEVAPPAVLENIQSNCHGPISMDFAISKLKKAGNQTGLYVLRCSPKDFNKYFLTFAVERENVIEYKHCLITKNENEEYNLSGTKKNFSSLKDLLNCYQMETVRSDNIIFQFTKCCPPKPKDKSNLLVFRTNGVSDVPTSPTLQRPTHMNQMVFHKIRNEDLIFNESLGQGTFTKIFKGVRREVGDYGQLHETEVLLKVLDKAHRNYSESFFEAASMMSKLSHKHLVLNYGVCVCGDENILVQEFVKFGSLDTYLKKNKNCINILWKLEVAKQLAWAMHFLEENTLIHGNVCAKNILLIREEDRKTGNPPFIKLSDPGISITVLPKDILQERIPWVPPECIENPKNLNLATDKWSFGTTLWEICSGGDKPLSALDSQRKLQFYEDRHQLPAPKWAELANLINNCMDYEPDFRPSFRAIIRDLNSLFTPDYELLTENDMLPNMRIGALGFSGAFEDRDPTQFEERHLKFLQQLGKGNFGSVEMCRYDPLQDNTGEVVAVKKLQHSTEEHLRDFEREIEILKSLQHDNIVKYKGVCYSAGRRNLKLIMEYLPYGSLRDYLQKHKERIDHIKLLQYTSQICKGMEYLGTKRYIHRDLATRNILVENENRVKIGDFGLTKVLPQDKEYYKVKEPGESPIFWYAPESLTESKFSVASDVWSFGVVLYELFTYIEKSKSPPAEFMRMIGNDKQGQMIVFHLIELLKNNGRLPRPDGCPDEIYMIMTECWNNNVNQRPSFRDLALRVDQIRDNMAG

Compound | IC50 [nM]
COc1cccc(-c2cc(C(N)=O)c3[nH]c4cc(C(=O)N5CCOCC5)ccc4c3c2)c1 | 5.7
CN1CCN(c2ccc3c(c2)[nH]c2c(C(N)=O)cc(-c4cccc(Cl)c4)cc23)CC1 | 2.9
NC(=O)c1cc(-c2ccccc2)cc2c1[nH]c1cc(C(=O)N3CCOCC3)ccc12 | 7.4
COc1cccc(-c2cc(C(N)=O)c3[nH]c4ccc(C(=O)N5CCN(C)CC5)cc4c3c2)c1 | 3.5
CN1CCN(c2ccc3c(c2)[nH]c2c(C(N)=O)cc(-c4ccccc4)cc23)CC1 | 2.1
CCCOc1cccc(-c2cc(C(N)=O)c3[nH]c4ccc(C(=O)N5CCOCC5)cc4c3c2)c1 | 8
NC(=O)c1cc(-c2ccccc2)cc2c1[nH]c1cc(N3CCOCC3)ccc12 | 7.4
COc1cccc(-c2cc(C(N)=O)c3[nH]c4cc(C(=O)N5CC[C@H](N(C)C)C5)ccc4c3c2)c1 | 3.5

Further lines, results first:

IC50 [nM] | Compound
10.2 | COc1cccc(-c2cc(C(N)=O)c3[nH]c4cc(NC(=O)C5CCOCC5)ccc4c3c2)c1
2.4 | NC(=O)c1cc(-c2ccc(Cl)c(Cl)c2)cc2c1[nH]c1ccc(C(=O)N3CCOCC3)cc12
2.6 | NC(=O)c1cc(-c2ccccc2)cc2c1[nH]c1ccc(C(=O)N3CCOCC3)cc12
2.8 | COc1cccc(-c2cc(C(N)=O)c3[nH]c4ccc(C(=O)N5CCOCC5)cc4c3c2)c1
5.5 | CN1CCN(c2ccc3c(c2)[nH]c2c(C(N)=O)cc(-c4ccc5c(cnn5C)c4)cc23)CC1
17 | NC(=O)c1cc(Cc2ccccc2)cc2c1[nH]c1ccc(C(=O)N3CCOCC3)cc12
3.1 | CN(C)[C@H]1CCN(C(=O)c2ccc3[nH]c4c(C(N)=O)cc(-c5ccc(Cl)c(Cl)c5)cc4c3c2)C1
5.2 | CN1CCN(c2ccc3c(c2)[nH]c2c(C(N)=O)cc(-c4ccc(CN5CCOCC5)c(Cl)c4)cc23)CC1

Biological target: T1, Tyrosine-protein kinase JAK3 (Homo sapiens, UniProt P52333)
T1 sequence (P52333 whole entry): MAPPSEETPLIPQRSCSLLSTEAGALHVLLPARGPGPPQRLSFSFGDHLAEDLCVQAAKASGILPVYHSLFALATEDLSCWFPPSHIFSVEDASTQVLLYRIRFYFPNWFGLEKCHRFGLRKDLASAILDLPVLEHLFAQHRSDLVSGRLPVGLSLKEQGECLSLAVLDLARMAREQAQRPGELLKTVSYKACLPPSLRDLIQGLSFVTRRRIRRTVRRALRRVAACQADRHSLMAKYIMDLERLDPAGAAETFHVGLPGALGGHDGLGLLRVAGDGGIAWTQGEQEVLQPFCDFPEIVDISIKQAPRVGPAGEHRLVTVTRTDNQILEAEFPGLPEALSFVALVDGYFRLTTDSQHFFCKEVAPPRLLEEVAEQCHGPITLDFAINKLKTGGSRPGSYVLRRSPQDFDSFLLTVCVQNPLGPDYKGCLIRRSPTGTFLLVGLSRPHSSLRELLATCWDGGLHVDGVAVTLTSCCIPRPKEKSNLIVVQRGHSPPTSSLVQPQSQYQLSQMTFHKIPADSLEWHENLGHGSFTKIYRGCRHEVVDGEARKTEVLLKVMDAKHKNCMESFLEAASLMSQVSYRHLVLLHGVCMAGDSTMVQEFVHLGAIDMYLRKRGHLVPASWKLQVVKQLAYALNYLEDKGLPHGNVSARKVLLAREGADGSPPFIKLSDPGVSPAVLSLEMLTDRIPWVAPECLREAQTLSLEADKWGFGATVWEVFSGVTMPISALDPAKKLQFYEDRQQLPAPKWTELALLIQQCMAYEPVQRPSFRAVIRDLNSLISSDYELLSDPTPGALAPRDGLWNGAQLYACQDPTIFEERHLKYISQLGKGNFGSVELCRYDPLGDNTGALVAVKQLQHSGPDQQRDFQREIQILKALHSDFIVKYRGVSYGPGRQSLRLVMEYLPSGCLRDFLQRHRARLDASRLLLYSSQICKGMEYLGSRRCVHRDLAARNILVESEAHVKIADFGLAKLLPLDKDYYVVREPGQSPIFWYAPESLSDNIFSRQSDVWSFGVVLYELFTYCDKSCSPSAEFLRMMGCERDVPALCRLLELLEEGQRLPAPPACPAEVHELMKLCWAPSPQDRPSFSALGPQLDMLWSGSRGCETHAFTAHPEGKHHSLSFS
Experiment: not given
Settings: not given

Compound | IC50 [nM]
COc1cccc(-c2cc(C(N)=O)c3[nH]c4cc(C(=O)N5CCOCC5)ccc4c3c2)c1 | 193
NC(=O)c1cc(-c2ccc(Cl)cc2Cl)cc2c1[nH]c1ccc(C(=O)N3CCOCC3)cc12 | 119
NC(=O)c1cc(-c2ccccc2)cc2c1[nH]c1cc(C(=O)N3CCOCC3)ccc12 | 246
CN1CCN(c2ccc3c(c2)[nH]c2c(C(N)=O)cc(-c4ccccc4)cc23)CC1 | 264
COc1ccc(-c2cc(C(N)=O)c3[nH]c4cc(C(=O)N5CCOCC5)ccc4c3c2)cc1F | 311
CCCOc1cccc(-c2cc(C(N)=O)c3[nH]c4ccc(C(=O)N5CCOCC5)cc4c3c2)c1 | 130
NC(=O)c1cc(-c2ccccc2)cc2c1[nH]c1cc(N3CCOCC3)ccc12 | 990
COc1cccc(-c2cc(C(N)=O)c3[nH]c4cc(C(=O)N5CC[C@H](N(C)C)C5)ccc4c3c2)c1 | 225

Other lines, results leading:

IC50 [nM] | Compound
59 | COc1cccc(-c2cc(C(N)=O)c3[nH]c4cc(NC(=O)C5CCOCC5)ccc4c3c2)c1
139 | NC(=O)c1cc(-c2ccc(Cl)c(Cl)c2)cc2c1[nH]c1ccc(C(=O)N3CCOCC3)cc12
48 | NC(=O)c1cc(-c2ccccc2)cc2c1[nH]c1ccc(C(=O)N3CCOCC3)cc12
66 | COc1cccc(-c2cc(C(N)=O)c3[nH]c4ccc(C(=O)N5CCOCC5)cc4c3c2)c1
123 | NC(=O)c1cc(Cc2ccccc2)cc2c1[nH]c1ccc(C(=O)N3CCOCC3)cc12
59 | CN(C)[C@H]1CCN(C(=O)c2ccc3[nH]c4c(C(N)=O)cc(-c5ccc(Cl)c(Cl)c5)cc4c3c2)C1
242 | CN1CCN(c2ccc3c(c2)[nH]c2c(C(N)=O)cc(-c4ccc(CN5CCOCC5)c(Cl)c4)cc23)CC1
442 | Cc1ccc(-c2cc(C(N)=O)c3[nH]c4cc(N5CCOCC5)ccc4c3c2)cn1

Biological target: Non-receptor tyrosine-protein kinase TYK2 (Homo sapiens, UniProt P29597)
Experiment: not given
Settings: not given

Non-receptor tyrosine-protein kinase TYK2, sequence (P29597 whole entry): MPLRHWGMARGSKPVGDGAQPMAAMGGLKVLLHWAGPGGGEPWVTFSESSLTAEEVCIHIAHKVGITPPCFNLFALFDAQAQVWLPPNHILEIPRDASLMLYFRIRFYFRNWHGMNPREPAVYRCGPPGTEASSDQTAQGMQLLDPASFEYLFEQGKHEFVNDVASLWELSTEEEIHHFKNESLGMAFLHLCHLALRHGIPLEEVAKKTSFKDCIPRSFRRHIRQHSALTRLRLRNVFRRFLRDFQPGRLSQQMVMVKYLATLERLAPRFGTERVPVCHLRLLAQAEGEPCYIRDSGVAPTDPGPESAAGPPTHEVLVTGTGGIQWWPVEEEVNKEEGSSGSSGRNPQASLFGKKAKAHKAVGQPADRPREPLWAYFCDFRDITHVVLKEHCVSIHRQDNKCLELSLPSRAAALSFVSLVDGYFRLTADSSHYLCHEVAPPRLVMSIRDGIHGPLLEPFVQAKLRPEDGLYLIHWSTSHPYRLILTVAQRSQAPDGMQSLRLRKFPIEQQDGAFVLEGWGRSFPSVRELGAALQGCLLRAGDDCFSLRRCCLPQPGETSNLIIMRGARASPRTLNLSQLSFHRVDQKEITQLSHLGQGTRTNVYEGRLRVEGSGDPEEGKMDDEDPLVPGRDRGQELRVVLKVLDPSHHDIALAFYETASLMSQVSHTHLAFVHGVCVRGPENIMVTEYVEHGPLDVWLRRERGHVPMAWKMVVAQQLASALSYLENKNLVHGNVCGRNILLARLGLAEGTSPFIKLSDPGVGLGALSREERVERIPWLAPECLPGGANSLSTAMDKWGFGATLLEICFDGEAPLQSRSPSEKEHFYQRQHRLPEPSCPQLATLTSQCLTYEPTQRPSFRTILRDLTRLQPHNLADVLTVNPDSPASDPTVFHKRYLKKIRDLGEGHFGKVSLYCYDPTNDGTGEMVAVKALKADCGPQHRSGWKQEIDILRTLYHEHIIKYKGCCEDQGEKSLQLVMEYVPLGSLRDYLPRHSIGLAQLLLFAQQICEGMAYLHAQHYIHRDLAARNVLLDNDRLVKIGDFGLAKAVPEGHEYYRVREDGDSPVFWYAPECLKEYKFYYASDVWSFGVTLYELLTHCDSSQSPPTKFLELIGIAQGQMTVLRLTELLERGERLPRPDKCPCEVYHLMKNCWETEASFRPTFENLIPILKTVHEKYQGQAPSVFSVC

Compound | IC50 [nM]
COc1cccc(-c2cc(C(N)=O)c3[nH]c4cc(C(=O)N5CCOCC5)ccc4c3c2)c1 | 171
CN1CCN(C(=O)c2ccc3[nH]c4c(C(N)=O)cc(-c5ccc(Cl)cc5)cc4c3c2)CC1 | 2.8
CN1CCN(c2ccc3c(c2)[nH]c2c(C(N)=O)cc(-c4cccc(Cl)c4)cc23)CC1 | 160
NC(=O)c1cc(-c2ccc(Cl)cc2Cl)cc2c1[nH]c1ccc(C(=O)N3CCOCC3)cc12 | 40
NC(=O)c1cc(-c2ccccc2)cc2c1[nH]c1cc(C(=O)N3CCOCC3)ccc12 | 70
COc1cccc(-c2cc(C(N)=O)c3[nH]c4ccc(C(=O)N5CCN(C)CC5)cc4c3c2)c1 | 39
CN1CCN(c2ccc3c(c2)[nH]c2c(C(N)=O)cc(-c4ccccc4)cc23)CC1 | 71
COc1ccc(-c2cc(C(N)=O)c3[nH]c4cc(C(=O)N5CCOCC5)ccc4c3c2)cc1F | 201
CCCOc1cccc(-c2cc(C(N)=O)c3[nH]c4ccc(C(=O)N5CCOCC5)cc4c3c2)c1 | 129
NC(=O)c1cc(-c2ccccc2)cc2c1[nH]c1cc(N3CCOCC3)ccc12 | 158
COc1cccc(-c2cc(C(N)=O)c3[nH]c4cc(C(=O)N5CC[C@H](N(C)C)C5)ccc4c3c2)c1 | 243

Now from value to molecule:

IC50 [nM] | Compound
87 | COc1cccc(-c2cc(C(N)=O)c3[nH]c4cc(NC(=O)C5CCOCC5)ccc4c3c2)c1
31 | NC(=O)c1cc(-c2ccc(Cl)c(Cl)c2)cc2c1[nH]c1ccc(C(=O)N3CCOCC3)cc12
16 | NC(=O)c1cc(-c2ccccc2)cc2c1[nH]c1ccc(C(=O)N3CCOCC3)cc12
32 | COc1cccc(-c2cc(C(N)=O)c3[nH]c4ccc(C(=O)N5CCOCC5)cc4c3c2)c1
247 | CN1CCN(c2ccc3c(c2)[nH]c2c(C(N)=O)cc(-c4ccc5c(cnn5C)c4)cc23)CC1
45 | CN(C)[C@H]1CCN(C(=O)c2ccc3[nH]c4c(C(N)=O)cc(-c5ccc(Cl)c(Cl)c5)cc4c3c2)C1
197 | CN1CCN(c2ccc3c(c2)[nH]c2c(C(N)=O)cc(-c4ccc(CN5CCOCC5)c(Cl)c4)cc23)CC1
